# From US6696494B2, “α-hydroxyarylbutanamine inhibitors of aspartyl protease” (Enanta Pharmaceuticals, Inc., priority 2001, dated 2004)
# Biological target: HIV-1 protease (Human immunodeficiency virus type 1 group M subtype B, UniProt P04585)
# Assay: Inhibition of microbial expressed viral protease (HIV-1 protease), method of Toth and Marshall
# Assay type: biochemical
# Method: Biological Assay for Inhibition of Microbial Expressed Viral Protease
# The inhibition constants against HIV-1 protease were measured using the method described by M. V. Toth and G. R. Marshall, Int. J. Peptide protein Res., 1990, 544. The method described M. W. Pennington et al., Peptides 1990, Gimet, E. and D. Andrew, Eds., Escom; Leiden, Netherlands (1990) may also be used. The potency is measured as IC50in μM. The person of skill would accept these tests as predictive of the compounds' utility in vivo to treat HIV infected patients.
row,SMILES,IC50 [nM]
1,CCCCCNC(=O)N[C@@H](Cc1ccccc1)[C@H](O)CCc1ccccc1C(=O)NC(C)(C)C [Example 000890],100 to 10000
2,Cc1ccc(OCC(=O)N[C@@H](Cc2ccccc2)[C@H](O)CCc2ccccc2C(=O)NC(C)(C)C)cc1 [Example 001186],100 to 10000
3,CC(C)(C)NC(=O)c1ccccc1CC[C@@H](O)[C@H](Cc1ccccc1)NC(=O)COc1c(Br)cc(F)cc1Br [Example 001226],100 to 10000
4,Cc1c(O)cccc1OCC(=O)N[C@@H](Cc1ccccc1)[C@H](O)CCc1ccccc1C(=O)NC(C)(C)C [Example 001246],< 100
5,CC(C)(C)NC(=O)c1ccccc1CC[C@@H](O)[C@H](Cc1ccccc1)NC(=O)c1ccc(Cl)cc1Cl [Example 000902],100 to 10000
6,CC(C)(C)NC(=O)c1ccccc1CC[C@@H](O)[C@H](Cc1ccccc1)NC(=O)CCc1ccccc1 [Example 000763],100 to 10000
7,CC(C)CC(O)C(=O)NC(Cc1ccccc1)C(O)CCc1ccccc1C(=O)NC(C)(C)C (stereo not drawn) [Example 001219],100 to 10000
8,CC(C)(C)NC(=O)c1ccccc1CC[C@@H](O)[C@H](Cc1ccccc1)NC(=O)c1cc(N)ccc1Cl [Example 000971],100 to 10000
9,CC(C)S(=O)(=O)N[C@@H](Cc1ccccc1)[C@H](O)CCc1ccccc1C(=O)NC(C)(C)C [Example 000881],100 to 10000
10,CC(C)(C)OC(=O)N[C@@H](Cc1ccccc1)[C@H](O)CCc1ccccc1C(=O)N[C@H](CO)c1ccccc1 [Example 001054],100 to 10000
11,CC(C)(C)NC(=O)c1ccccc1CC[C@@H](O)[C@H](Cc1ccccc1)NC(=O)c1cc(Cl)cc(Cl)c1 [Example 000967],100 to 10000
12,CCNC(=O)N[C@@H](Cc1ccccc1)[C@H](O)CCc1ccccc1C(=O)NC(C)(C)C [Example 000771],100 to 10000
13,Cc1c(O)cccc1C(=O)N[C@@H](Cc1ccccc1)[C@H](O)CCc1ccccc1C(=O)NC(C)(C)C [Example 000972],< 100
14,CC(C)(C)NC(=O)c1ccccc1CC[C@@H](O)[C@H](Cc1ccccc1)NS(=O)(=O)c1cccc(Cl)c1Cl [Example 001010],> 10000
15,CN(C)c1ccc(C(=O)N[C@@H](Cc2ccccc2)[C@H](O)CCc2ccccc2C(=O)NC(C)(C)C)cc1 [Example 000954],> 10000
16,CCCCNC(=O)c1ccccc1CC[C@@H](O)[C@H](Cc1ccccc1)NC(=O)OC(C)(C)C [Example 000344],100 to 10000
17,CC1CCCCC1OCC(=O)NC(Cc1ccccc1)C(O)CCc1ccccc1C(=O)NC(C)(C)C (stereo not drawn) [Example 001229],100 to 10000
18,COc1ccc(Br)c(C(=O)N[C@@H](Cc2ccccc2)[C@H](O)CCc2ccccc2C(=O)NC(C)(C)C)c1 [Example 000900],100 to 10000
19,CC(C)(C)NC(=O)c1ccccc1CC[C@@H](O)[C@H](Cc1ccccc1)NC(=O)N1CCOCC1 [Example 001008],100 to 10000
20,CC1CCCC(C)C1OCC(=O)NC(Cc1ccccc1)C(O)CCc1ccccc1C(=O)NC(C)(C)C (stereo not drawn) [Example 001230],100 to 10000
21,CC(C)(C)NC(=O)c1ccccc1CC[C@@H](O)[C@H](Cc1ccccc1)NC(=O)c1ccc(F)cc1F [Example 000901],100 to 10000
22,CC(C)(C)NC(=O)c1ccccc1CC[C@@H](O)[C@H](Cc1ccccc1)NC(=O)c1ccccc1Nc1ccccc1 [Example 001020],> 10000
23,Cc1nocc1C(=O)N[C@@H](Cc1ccccc1)[C@H](O)CCc1ccccc1C(=O)NC(C)(C)C [Example 001154],100 to 10000
24,Cc1c(N)cccc1C(=O)N[C@@H](Cc1ccccc1)[C@H](O)CCc1ccccc1C(=O)NC(C)(C)C [Example 000945],> 10000

row,SMILES,IC50 [nM]
1,CC(C)(C)NC(=O)c1ccccc1CC[C@@H](O)[C@H](Cc1ccccc1)NC(=O)c1ccccc1 [Example 000245],100 to 10000
2,Cc1cc(Br)cc(C)c1OCC(=O)N[C@@H](Cc1ccccc1)[C@H](O)CCc1ccccc1C(=O)NC(C)(C)C [Example 001218],< 100
3,CC(C)(C)NC(=O)c1ccccc1CC[C@@H](O)[C@H](Cc1ccccc1)NC(=O)O[C@H]1CCOC1 [Example 000180],< 100
4,CC(C)(C)NC(=O)c1ccccc1CC[C@@H](O)[C@H](Cc1ccccc1)NC(=O)c1c(F)cccc1F [Example 000969],100 to 10000
5,CC(C)(C)NC(=O)c1ccccc1CC[C@@H](O)[C@H](Cc1ccccc1)NC(=O)Nc1ccc([N+](=O)[O-])cc1 [Example 000889],100 to 10000
6,Cc1cc(CO)cc(C)c1OCC(=O)N[C@@H](Cc1ccccc1)[C@H](O)CCc1ccccc1C(=O)NC(C)(C)C [Example 001267],< 100
7,Cc1ccc(CC[C@@H](O)[C@H](Cc2ccccc2)NC(=O)COc2c(C)cccc2C)c(C(=O)NC(C)(C)C)c1 [Example 001237],< 100
8,CCC(CC)OCC(=O)N[C@@H](Cc1ccccc1)[C@H](O)CCc1ccccc1C(=O)NC(C)(C)C [Example 001231],100 to 10000
9,CC(C)(C)NC(=O)c1ccccc1CC[C@@H](O)[C@H](Cc1ccccc1)NC(=O)Cc1ccccc1 [Example 00762],100 to 10000
10,CC(C)(C)NC(=O)c1ccccc1CC[C@@H](O)[C@H](Cc1ccccc1)NS(=O)(=O)c1cccc2nonc12 [Example 001012],100 to 10000
11,C[C@H](O)C(=O)N[C@@H](Cc1ccccc1)[C@H](O)CCc1ccccc1C(=O)NC(C)(C)C [Example 000242],100 to 10000
12,CC(C)(C)NC(=O)c1ccccc1CC[C@@H](O)[C@H](Cc1ccccc1)NC(=O)COc1ccc2ccccc2c1 [Example 000760],100 to 10000
13,CC(C)(C)NC(=O)c1ccccc1CC[C@@H](O)[C@H](Cc1ccccc1)NC(=O)N1c2ccccc2Sc2ccccc21 [Example 00241],> 10000
14,CC(C)(C)NC(=O)c1ccccc1CCC(O)C(Cc1ccccc1)NC(=O)C(F)=Cc1ccccc1 (stereo not drawn) [Example 000947],> 10000
15,Cc1ccccc1S(=O)(=O)NC(=O)N[C@@H](Cc1ccccc1)[C@H](O)CCc1ccccc1C(=O)NC(C)(C)C [Example 001014],100 to 10000
16,CC(C)(C)NC(=O)c1ccccc1CC[C@@H](O)[C@H](Cc1ccccc1)NC(=O)COc1c(F)cccc1F [Example 001214],< 100
17,CC(C)(C)NC(=O)c1ccccc1CC[C@@H](O)[C@H](Cc1ccccc1)NC(=O)c1ccccc1C(=O)c1ccccc1N [Example 001040],100 to 10000
18,CC(C)(C)NC(=O)c1ccccc1CC[C@@H](O)[C@H](Cc1ccccc1)NC(=O)CSc1ccccc1 [Example 001190],100 to 10000
19,CC(C)(C)NC(=O)c1ccccc1CC[C@@H](O)[C@H](Cc1ccccc1)NC(=O)COc1ccccc1C(F)(F)F [Example 001204],100 to 10000
20,CC(C)(C)NC(=O)c1ccccc1CC[C@@H](O)[C@H](Cc1ccccc1)NS(=O)(=O)c1ccc(Br)c(Cl)n1 [Example 000879],100 to 10000
21,CC(C)CNC(=O)c1ccccc1CC[C@@H](O)[C@H](Cc1ccccc1)NC(=O)OC(C)(C)C [Example 000156],< 100
22,CC(C)(C)NC(=O)c1ccccc1CC[C@@H](O)[C@H](Cc1ccccc1)NC(=O)c1ccccc1C(=O)c1ccccc1 [Example 00968],100 to 10000
23,CC(C)(C)NC(=O)c1ccccc1CC[C@@H](O)[C@H](Cc1ccccc1)NC(=O)COc1ccccc1 [Example 000244],100 to 10000
24,CCOC(=O)N[C@@H](Cc1ccccc1)[C@H](O)CCc1ccccc1C(=O)NCCC(C)C [Example 000770],100 to 10000
